“And” between values parts separate entries of the source, which are not always exact repeats. Equal values may be shown once.
Legend:
[1] = AIOR assay (antioxidant inhibition of radical assay): uroporphyrin I fluorescence decay with AAPH, area under curve against Trolox standard curve; type: biochemical; conditions: for Antioxidant Status (mM) Trolox Equivalent Calculated 1/16 Dilution: calculated from the observed ¼ dilution value; for Antioxidant Status Trolox Equivalent (mM) of the observed individual ¼ Dilution: individual polyphenol; for Antioxidant Status Trolox Equivalent (mM) of the observed individual ¼ Dilution / Antioxidant status in mM Trolox equivalent, High value / Antioxidant status in mM Trolox equivalent, Low value / Antioxidant status in mM Trolox equivalent, Mean value: n=9; for Antioxidant status in mM Trolox equivalent, High value / Antioxidant status in mM Trolox equivalent, Low value / Antioxidant status in mM Trolox equivalent, Mean value / antioxidant activity of solvent (in words): solvent compared against blank; for Area Under Curve (mean ± SD): uroporphyrin 1/1000, ratio 1:45:280, n=6
Method: The stock phosphate buffer (0.75 M, pH 7.0) was prepared by mixing 61.1:38.9 (v/v) of a 0.75 M K2HPO4 and a 0.75 M NaH2PO4 solution. The working phosphate buffer 75 mM, pH 7.0 was prepared by a 1:9 (v/v) dilution of the 0.75 M stock phosphate buffer.
AAPH (583 mM) was prepared by dissolving completely 0.474 g of AAPH in 3 mL of 75 mM, pH 7.0 phosphate buffer. This solution was prepared freshly before each run.
Uroporphyrin stock solution (225 μM) was prepared by dissolving 1.2 mg of uroporphyrin I dihydrochloride in 5.9 mL of phosphate buffer (75 mM, pH 7.0). This solution was very stable for many months by storing in the dark at 4° C. A secondary uroporphyrin stock solution for routine use was prepared by a 1:50 (v/v) dilution of the stock uroporphyrin solution with phosphate buffer (75 mM, pH 7.0). This secondary stock solution was stable for several months in the dark at 4° C. A working uroporphyrin solution for daily use was prepared by a 1:750 (v/v) dilution of the secondary uroporphyrin solution with phosphate buffer (75 mM, pH 7.0).
To enable complete solubility of both hydrophobic and hydrophilic compounds in the sample, a surfactant Brij 35™ was added to the working uroporphyrin solution in the quantity of 0.1% of the reagent.
Trolox was used as an antioxidant standard to compare the antioxidant status of various inorganic and organic matter. A stock Trolox standard solution (5.0 mM) was prepared by dissolving Trolox 35 (250 mg) in 200 mL of phosphate buffer (75 mM, pH 7.0). Working standards of Trolox were prepared by diluting the stock Trolox standard to 0.5, 1.0 and 2.0 mM with the same buffer.
Sample/blank/standard (1 μL), and working uroporphyrin solution (0.300 uM) with Brij™ (136 μL) were added to the wells of a 96-well microplate. Blank, standards or diluted samples were added first into the well, followed by working uroporphyrin solution with Brij™. The contents of each well was mixed using a plateshaker for 1-2 minutes. Freshly prepared AAPH solution […] (22 μL) was then added. This procedure provided a sample to AAPH to uroporphyrin ratio of (1:22:136). The contents of the wells were then mixed again for exactly 2 minutes before acquisition of data with the Varian Cary Eclipse fluorescence spectrophotometer. A sample to reagent ratio of (2:30:186) was also used to further improve the precision of the assay.
The Varian Cary Eclipse fluorescence spectrophotometer settings were as follows. • Excitation λ=397 nm; Emission λ=615 nm. • Excitation Slit=20 nm; Emission Slit=10 nm. • Ave Time=0.2 sec. • Run Time=180 minutes. • Y (min-max)=0-1000. • Excitation Filter: Auto. • Emission Filter: Open. • PMT: Variable (Choice of low, medium or high).
The method takes the free radical action to completion in 180 minutes. The Varian Cary Eclipse fluorescence spectrophotometer has the ability to achieve high throughput of 96 samples in 180 minutes with the 96-wellplate format. […] This invention provides both a method and reagent, which can accurately, easily, economically, and quickly analyze antioxidant status.
The results of the analysis were normalized by Varian Cary Eclipse software and calculated by GraphPad Prism 4.0 software (GraphPad Software, Inc., San Diego Calif., 2003).

[2] = as above; type: biochemical; conditions: for Area Under Curve (mean ± SD): uroporphyrin 1/1000, ratio 1:45:280, n=6

Oc1cc(O)c2c(c1)O[C@H](c1ccc(O)c(O)c1)[C@H](O)C2 [(−) Epicatechin, (−) epicatechin]
Antioxidant Status (mM) Trolox Equivalent Calculated 1/16 Dilution [1]: 1.00 mM
Antioxidant Status Trolox Equivalent (mM) of the observed individual ¼ Dilution [1]: 4.03 ± 0.28 mM
Antioxidant Status Trolox Equivalent (mM ± SD) ([1]; polyphenol 0.25 mM in ethanol): 1.62 ± 0.13 mM
Antioxidant Status Trolox Equivalent (mM ± SD) ([1]; polyphenol 0.5 mM in ethanol): 3.69 ± 0.23 mM

C[S+](C)[O-] [DMSO, Dimethyl sulphoxide]
Antioxidant status in mM Trolox equivalent, High value [1]: 1.2 mM
Antioxidant status in mM Trolox equivalent, Low value [1]: 0.6 mM
Antioxidant status in mM Trolox equivalent, Mean value [1]: 0.86 mM

O=C1O[C@H]([C@@H](O)CO)C(O)=C1O [Vitamin C]
Antioxidant Status in Trolox Equivalent (mM ± SD) ([1]; vitamin C 2.65 mM in deionized water, n=12): 0.9 ± 0.1 mM
Antioxidant Status in Trolox Equivalent (mM ± SD) ([1]; vitamin C 2.65 mM in deionized water, n=12, listed as vitamin C): 0.9 mM
Antioxidant Status in Trolox Equivalent (mM ± SD) ([1]; vitamin C 5.30 mM in deionized water, n=12): 1.8 ± 0.1 mM
Antioxidant Status in Trolox Equivalent (mM ± SD) ([1]; vitamin C 5.30 mM in deionized water, n=12, listed as vitamin C): 1.8 mM
Antioxidant Status in Trolox Equivalent (mM ± SD) ([1]; vitamin C 10.6 mM in deionized water, outside standard curve range, n=12): 4.0 ± 0.2 mM
Antioxidant Status in Trolox Equivalent (mM ± SD) ([1]; vitamin C 10.6 mM in deionized water, outside standard curve range, n=12, listed as vitamin C): 4.0 mM

Cn1c(=O)c2c(ncn2C)n(C)c1=O [caffeine]
mean antioxidant status in Trolox equivalent ([1]; caffeine 9.6 mmol/L in phosphate buffer): 0.2 mM

Vitamin E
Antioxidant Status in Trolox Equivalent (mM ± SD) ([1]; vitamin E 952 μM in isopropanol, n=10): 0.4 ± 0.1 mM
Antioxidant Status in Trolox Equivalent (mM ± SD) ([1]; vitamin E 952 μM in isopropanol, n=10, listed as vitamin E): 0.4 mM
Antioxidant Status in Trolox Equivalent (mM ± SD) ([1]; vitamin E 1905 μM in isopropanol, n=10): 1.1 ± 0.1 mM
Antioxidant Status in Trolox Equivalent (mM ± SD) ([1]; vitamin E 1905 μM in isopropanol, n=10, listed as vitamin E): 1.1 mM
Antioxidant Status in Trolox Equivalent (mM ± SD) ([1]; vitamin E 3810 μM in isopropanol, n=10): 2.7 ± 0.1 mM
Antioxidant Status in Trolox Equivalent (mM ± SD) ([1]; vitamin E 3810 μM in isopropanol, n=10, listed as vitamin E): 2.7 mM

CC(C)O [Isopropanol]
antioxidant activity of solvent (in words) [1]: no antioxidant activity
Antioxidant status in mM Trolox equivalent, High value [1]: 0.1 mM
Antioxidant status in mM Trolox equivalent, Low value [1]: 0.0 mM
Antioxidant status in mM Trolox equivalent, Mean value [1]: 0.04 mM

(±) catechin
Antioxidant Status Trolox Equivalent (mM ± SD) ([1]; polyphenol 0.25 mM in ethanol): 1.60 ± 0.07 mM
Antioxidant Status Trolox Equivalent (mM ± SD) ([1]; polyphenol 0.5 mM in ethanol): 3.47 ± 0.19 mM

O=C(O)c1cc(O)c(O)c(O)c1 [Gallic acid]
Antioxidant Status (mM) Trolox Equivalent Calculated 1/16 Dilution [1]: 0.45 mM
Antioxidant Status Trolox Equivalent (mM) of the observed individual ¼ Dilution [1]: 1.75 ± 0.11 mM
Antioxidant Status Trolox Equivalent (mM ± SD) ([1]; polyphenol 0.25 mM in ethanol): 0.46 ± 0.07 mM
Antioxidant Status Trolox Equivalent (mM ± SD) ([1]; polyphenol 0.5 mM in ethanol): 1.22 ± 0.17 mM

CCO [Ethanol]
antioxidant activity of solvent (in words) [1]: no antioxidant activity
Antioxidant status in mM Trolox equivalent, High value [1]: 0.1 mM
Antioxidant status in mM Trolox equivalent, Low value [1]: 0.0 mM
Antioxidant status in mM Trolox equivalent, Mean value [1]: 0.08 mM

O=c1[nH]c(=O)c2[nH]c(=O)[nH]c2[nH]1 [Uric Acid, Uric acid]
Antioxidant Status in Trolox Equivalent (mM ± SD) ([1]; uric acid 424 μM in phosphate buffer, n=12): 0.6 ± 0.1 mM
Antioxidant Status in Trolox Equivalent (mM ± SD) ([1]; uric acid 424 μM in phosphate buffer, n=12, listed as uric acid): 0.6 mM
Antioxidant Status in Trolox Equivalent (mM ± SD) ([1]; uric acid 848 μM in phosphate buffer, n=12): 1.2 ± 0.1 mM
Antioxidant Status in Trolox Equivalent (mM ± SD) ([1]; uric acid 848 μM in phosphate buffer, n=12, listed as uric acid): 1.2 mM
Antioxidant Status in Trolox Equivalent (mM ± SD) ([1]; uric acid 1696 μM in phosphate buffer, n=12): 2.4 ± 0.1 mM
Antioxidant Status in Trolox Equivalent (mM ± SD) ([1]; uric acid 1696 μM in phosphate buffer, n=12, listed as uric acid): 2.4 mM
estimation of mean antioxidant status, Trolox equivalent ([1]; uric acid at physiological upper range for female, 340 μmol/L): 0.48 mM
estimation of mean antioxidant status, Trolox equivalent ([1]; uric acid at physiological upper range for male, 420 μmol/L): 0.59 mM

Albumin
Antioxidant Capacity in Trolox Equivalent (mM ± SD) ([1]; albumin 20 g/L in phosphate buffer, n=12): 1.2 mM and 1.2 ± 0.1 mM
Antioxidant Capacity in Trolox Equivalent (mM ± SD) ([1]; albumin 40 g/L in phosphate buffer, n=12): 2.4 mM and 2.4 ± 0.1 mM

CC(C)=O [Acetone]
antioxidant activity of solvent (in words) [1]: no antioxidant activity
Antioxidant status in mM Trolox equivalent, High value [1]: 0.2 mM
Antioxidant status in mM Trolox equivalent, Low value [1]: 0.0 mM
Antioxidant status in mM Trolox equivalent, Mean value [1]: 0.08 mM

Vitamin A
Antioxidant Status in Trolox Equivalent (mM ± SD) ([1]; vitamin A 1940 μM in isopropanol, n=10): 0.6 ± 0.1 mM
Antioxidant Status in Trolox Equivalent (mM ± SD) ([1]; vitamin A 1940 μM in isopropanol, n=10, listed as vitamin A): 0.56 mM
Antioxidant Status in Trolox Equivalent (mM ± SD) ([1]; vitamin A 3880 μM in isopropanol, n=10): 1.1 ± 0.1 mM
Antioxidant Status in Trolox Equivalent (mM ± SD) ([1]; vitamin A 3880 μM in isopropanol, n=10, listed as vitamin A): 1.11 mM
Antioxidant Status in Trolox Equivalent (mM ± SD) ([1]; vitamin A 5820 μM in isopropanol, n=10): 1.4 ± 0.1 mM
Antioxidant Status in Trolox Equivalent (mM ± SD) ([1]; vitamin A 5820 μM in isopropanol, n=10, listed as vitamin A): 1.41 mM

O=c1c(O)c(-c2ccc(O)c(O)c2)oc2cc(O)cc(O)c12 [Quercetin]
Antioxidant Status (mM) Trolox Equivalent Calculated 1/16 Dilution [1]: 1.10 mM
Antioxidant Status Trolox Equivalent (mM) of the observed individual ¼ Dilution [1]: 4.41 ± 0.44 mM
Antioxidant Status Trolox Equivalent (mM ± SD) ([1]; polyphenol 0.25 mM in ethanol): 1.82 ± 0.13 mM
Antioxidant Status Trolox Equivalent (mM ± SD) ([1]; polyphenol 0.5 mM in ethanol): 4.58 ± 0.24 mM

Cc1c(C)c2c(c(C)c1O)CCC(C)(C(=O)O)O2 (racemic) [Trolox, (±)6-hydroxy-2,5,7,8-tetramethylchromane-2-carboxylic acid]
Area Under Curve (mean ± SD) ([2]; STD 1.0 mM, AAPH 583 mM): 40829 ± 4000
Area Under Curve (mean ± SD) ([2]; STD 2.0 mM, AAPH 583 mM): 55416 ± 3207
Area Under Curve (mean ± SD) ([2]; STD 2.0 mM, AAPH 640 mM): 44522 ± 2348
Area Under Curve (mean ± SD) ([2]; STD 4.0 mM, AAPH 640 mM): 69220 ± 6603
Mean Area Under Curve ([2]; Trolox 2.0 mM, 100 μL Brij 35 per 15 mL working uroporphyrin solution, n=24): 71394
Area Under Curve (mean ± SD) ([1]; STD 1.0 mM, AAPH 640 mM): 35554 ± 2267
Area Under Curve (mean ± SD) ([1]; STD 4.0 mM, AAPH 583 mM): 77238 ± 3701
Mean Area Under Curve ([1]; Trolox 0.5 mM, 20 μL Brij 35 per 15 mL working uroporphyrin solution, n=24): 45482
Mean Area Under Curve ([1]; Trolox 0.5 mM, 100 μL Brij 35 per 15 mL working uroporphyrin solution, n=24): 52714
Mean Area Under Curve ([1]; Trolox 0.5 mM, intra-assay precision, n=16): 47456
Mean Area Under Curve ([1]; Trolox 1.0 mM, 20 μL Brij 35 per 15 mL working uroporphyrin solution, n=24): 57154
Mean Area Under Curve ([1]; Trolox 1.0 mM, 100 μL Brij 35 per 15 mL working uroporphyrin solution, n=24): 61482
Mean Area Under Curve ([1]; Trolox 1.0 mM, intra-assay precision, n=16): 57535
Mean Area Under Curve ([1]; Trolox 2.0 mM, 20 μL Brij 35 per 15 mL working uroporphyrin solution, n=24): 72596
Mean Area Under Curve ([1]; Trolox 2.0 mM, intra-assay precision, n=16): 76499

— patent publication US20050244983A1, “Method for measuring antioxidant status” (The Western Australian Centre for Pathology and Medical …, priority 2002, published 2005)
